Experimental data reported in ChEMBL document CHEMBL3351708, “Synthesis of new pyridazino[4,5-b]indol-4-ones and pyridazin-3(2H)-one analogs as DYRK1A inhibitors” (Bioorg Med Chem Lett, 2014).

How the values were obtained:
[1] = target: Dual specificity tyrosine-phosphorylation-regulated kinase 1A (Homo sapiens, UniProt Q13627); assay: Inhibition of DYRK1A (unknown origin)
[2] = system: NCI-H727; assay: Antiproliferative activity against human NCI-H727 cells; type: functional, cell-based
[3] = Antiproliferative activity against human fibroblast cells; type: cell-based
[4] = target: Phosphatidylinositol 4,5-bisphosphate 3-kinase catalytic subunit alpha isoform (Homo sapiens, UniProt P42336); assay: Inhibition of p110alpha (unknown origin)
[5] = target: Glycogen synthase kinase-3 (Homo sapiens, UniProt P49840+P49841); assay: Inhibition of GSK3alpha/beta (unknown origin); type: protein assay
[6] = Antiproliferative activity against human HCT116 cells; type: functional, cell-based; details: HCT-116
[7] = Antiproliferative activity against human Caco2 cells; type: functional, cell-based; details: Caco-2
[8] = Antiproliferative activity against human PC3 cells; type: functional, cell-based; details: PC-3
[9] = system: MDA-MB-231; assay: Antiproliferative activity against human MDA-MB-231 cells; type: functional, cell-based
[10] = Antiproliferative activity against human HuH7 cells; type: functional, cell-based; details: Huh-7
[11] = target: Cyclin-dependent kinase 5/CDK5 activator 1 (Homo sapiens, UniProt Q00535); assay: Inhibition of CDK5/p25 (unknown origin); type: protein-complex assay
[12] = system: MDA-MB-231; assay: Antiproliferative activity against human MDA-MB-231 cells assessed as decrease in cell growth; type: functional
[13] = Antiproliferative activity against human HCT116 cells assessed as decrease in cell growth; type: functional, HCT-116
[14] = Antiproliferative activity against human HuH7 cells assessed as decrease in cell growth; type: functional, Huh-7

Chain of Phosphatidylinositol 4,5-bisphosphate 3-kinase catalytic subunit alpha isoform (P42336 whole entry, canonical isoform): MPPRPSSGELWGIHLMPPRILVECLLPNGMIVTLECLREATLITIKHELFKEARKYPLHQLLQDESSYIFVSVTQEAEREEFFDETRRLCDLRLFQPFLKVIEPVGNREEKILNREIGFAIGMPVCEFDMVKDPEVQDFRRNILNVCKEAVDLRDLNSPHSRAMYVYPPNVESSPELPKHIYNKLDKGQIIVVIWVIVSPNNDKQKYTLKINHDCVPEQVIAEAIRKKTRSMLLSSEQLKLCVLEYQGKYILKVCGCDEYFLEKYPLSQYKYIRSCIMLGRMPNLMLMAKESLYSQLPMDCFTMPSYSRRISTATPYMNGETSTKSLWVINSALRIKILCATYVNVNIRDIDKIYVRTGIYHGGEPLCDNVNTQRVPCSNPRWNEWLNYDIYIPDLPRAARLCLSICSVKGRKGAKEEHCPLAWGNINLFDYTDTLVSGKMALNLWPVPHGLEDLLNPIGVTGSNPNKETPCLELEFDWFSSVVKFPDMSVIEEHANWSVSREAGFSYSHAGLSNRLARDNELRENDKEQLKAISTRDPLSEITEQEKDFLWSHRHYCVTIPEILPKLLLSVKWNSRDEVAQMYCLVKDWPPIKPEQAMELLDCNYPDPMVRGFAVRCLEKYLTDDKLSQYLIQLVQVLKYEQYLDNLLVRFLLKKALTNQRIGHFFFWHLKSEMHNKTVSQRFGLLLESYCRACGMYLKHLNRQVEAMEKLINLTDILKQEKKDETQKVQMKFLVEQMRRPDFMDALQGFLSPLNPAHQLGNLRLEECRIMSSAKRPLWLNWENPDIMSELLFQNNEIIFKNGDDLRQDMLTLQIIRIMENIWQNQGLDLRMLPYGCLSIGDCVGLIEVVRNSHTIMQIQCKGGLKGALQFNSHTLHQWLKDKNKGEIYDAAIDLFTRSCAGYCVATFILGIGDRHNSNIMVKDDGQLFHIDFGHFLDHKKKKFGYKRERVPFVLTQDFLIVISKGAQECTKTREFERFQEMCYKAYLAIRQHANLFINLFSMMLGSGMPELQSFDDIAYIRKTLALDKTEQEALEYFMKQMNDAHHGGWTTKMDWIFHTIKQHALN
Chain of Cyclin-dependent kinase 5/CDK5 activator 1 (Q00535 whole entry): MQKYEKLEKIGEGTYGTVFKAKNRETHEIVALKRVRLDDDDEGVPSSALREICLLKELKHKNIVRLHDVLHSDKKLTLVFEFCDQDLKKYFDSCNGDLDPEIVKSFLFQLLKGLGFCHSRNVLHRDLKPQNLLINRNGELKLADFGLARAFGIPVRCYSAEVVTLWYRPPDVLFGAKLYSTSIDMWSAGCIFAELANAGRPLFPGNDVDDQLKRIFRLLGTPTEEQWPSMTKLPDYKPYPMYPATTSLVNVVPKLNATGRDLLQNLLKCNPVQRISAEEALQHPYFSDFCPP
Chain of Cyclin-dependent kinase 5/CDK5 activator 1 (Q15078 whole entry, further chain): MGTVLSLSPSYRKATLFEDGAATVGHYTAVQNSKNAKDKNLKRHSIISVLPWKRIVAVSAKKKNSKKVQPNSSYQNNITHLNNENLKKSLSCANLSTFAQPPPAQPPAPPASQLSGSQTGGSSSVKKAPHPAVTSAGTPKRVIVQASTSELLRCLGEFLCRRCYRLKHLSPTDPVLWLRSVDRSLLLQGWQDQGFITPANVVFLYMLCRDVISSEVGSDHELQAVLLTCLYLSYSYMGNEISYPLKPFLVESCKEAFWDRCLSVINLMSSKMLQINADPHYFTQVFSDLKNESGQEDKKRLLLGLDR

| Compound | IC50 [1] [µM] | IC50 [2] [µM] | IC50 [3] [µM] | IC50 [4] [µM] | IC50 [5] [µM] | IC50 [6] [µM] | IC50 [7] [µM] | IC50 [8] [µM] | IC50 [9] [µM] | IC50 [10] [µM] | IC50 [11] [µM] | inhibition (INH) [12] [%] | inhibition (INH) [13] [%] | inhibition (INH) [14] [%] |
| --- | --- | --- | --- | --- | --- | --- | --- | --- | --- | --- | --- | --- | --- | --- |
| COc1ccc(-c2n[nH]c(=O)c3[nH]c4ccc(OC)cc4c23)cc1 | 1.5 | > 25 | > 25 | > 10 | 1.4 | > 25 | > 25 | > 25 | > 25 | > 25 | > 10 |  |  |  |
| COc1ccc2[nH]c3c(=O)[nH]nc(-c4ccccc4)c3c2c1 | > 10 |  |  | > 10 | 1.3 |  |  |  |  |  |  |  |  |  |
| COc1ccc(Nc2cc(C)n[nH]c2=O)cc1 | > 10 |  |  |  | > 10 |  |  |  |  |  | > 10 |  |  |  |
| COc1ccc2[nH]c3c(=O)[nH]nc(-c4ccco4)c3c2c1 | 0.22 | > 25 | > 25 | > 10 | > 10 | 3 | 0.6 | > 25 | 0.3 | 0.25 | > 10 | 50 | 50 | 50 |
| COc1ccc2[nH]c3c(=O)[nH]nc(-c4ccc(C(F)(F)F)cc4)c3c2c1 | > 10 | > 25 | > 25 | 6.9 | > 10 | > 25 | > 25 | > 25 | > 25 | > 25 | > 10 |  |  |  |
| COc1ccc(Nc2cc(-c3ccco3)n[nH]c2=O)cc1 | > 10 | > 25 | > 25 | > 10 | > 10 | > 25 | > 25 | > 25 | > 25 | > 25 | > 10 |  |  |  |
| COc1ccc2[nH]c3c(=O)[nH]nc(C)c3c2c1 | 5 |  | 20 |  | > 10 | 15 | 8 | 7 |  | 3 | > 10 |  |  |  |
| COc1ccc(Nc2cc(-c3ccc(OC)cc3)n[nH]c2=O)cc1 | 5.1 |  |  |  | 2.5 |  |  |  |  |  | > 10 |  |  |  |
| COc1ccc(Nc2cc(-c3ccccc3)n[nH]c2=O)cc1 | > 10 | > 25 | > 25 | > 10 | > 10 | > 25 | > 25 | > 25 | > 25 | > 25 | > 10 |  |  |  |
| COc1ccc(Nc2cc(-c3ccncc3)n[nH]c2=O)cc1 | 0.61 | > 25 | > 25 | > 10 | 9.6 | > 25 | > 25 | > 25 | > 25 | > 25 | > 10 |  |  |  |
